Experimental data: the NIST ThermoML archive (doi:10.1016/j.tca.2015.02.014)
Numbers after ± are expanded uncertainties.

Assay: mn = molality of the nth substance listed, in mol/kg
Conditions: 100 kPa, Liquid; for viscosity: Capillary tube (Ostwald / Ubbelohde) method; for speed of sound: Frequency=3 MHz, Sing-around technique in a fixed-path interferometer; for mass density: Vibrating tube method

C[C@H](CCC(=O)[O-])[C@H]1CC[C@H]2[C@@H]3[C@H](O)C[C@@H]4C[C@H](O)CC[C@]4(C)[C@H]3C[C@H](O)[C@]12C.[Na+] [sodium cholate] + O
Conditions | mass density [kg/m3] | speed of sound [m/s] | viscosity [mPa·s]
293.15 K, m1 = 0.001 | 998.33 ± 0.12 | 1483 ± 1.3 | 1.003 ± 0.021
293.15 K, m1 = 0.002 | 998.422 ± 0.12 | 1483.3 ± 1.4 | 1.004 ± 0.021
293.15 K, m1 = 0.003 | 998.533 ± 0.12 | 1483.6 ± 1.4 | 1.005 ± 0.021
293.15 K, m1 = 0.004 | 998.618 ± 0.12 | 1483.8 ± 1.4 | 1.007 ± 0.021
293.15 K, m1 = 0.006 | 998.805 ± 0.12 | 1484.4 ± 1.4 | 1.011 ± 0.021
293.15 K, m1 = 0.008 | 999.003 ± 0.12 | 1485 ± 1.4 | 1.016 ± 0.021
293.15 K, m1 = 0.01 | 999.241 ± 0.12 | 1485.8 ± 1.4 | 1.021 ± 0.021
293.15 K, m1 = 0.014 | 999.685 ± 0.12 | 1486.9 ± 1.3 | 1.033 ± 0.022
293.15 K, m1 = 0.018 | 1000.14 ± 0.14 | 1487.9 ± 1.7 | 1.041 ± 0.024
293.15 K, m1 = 0.022 | 1000.59 ± 0.12 | 1488.8 ± 1.3 | 1.048 ± 0.021
293.15 K, m1 = 0.026 | 1001 ± 0.13 | 1489.7 ± 1.3 | 1.056 ± 0.021
293.15 K, m1 = 0.03 | 1001.44 ± 0.13 | 1490.2 ± 1.3 | 1.063 ± 0.022
298.15 K, m1 = 0.001 | 997.158 ± 0.12 | 1497 ± 1.3 | 0.8906 ± 0.021
298.15 K, m1 = 0.002 | 997.267 ± 0.12 | 1497.3 ± 1.3 | 0.8925 ± 0.021
298.15 K, m1 = 0.003 | 997.369 ± 0.12 | 1497.6 ± 1.3 | 0.8939 ± 0.021
298.15 K, m1 = 0.004 | 997.455 ± 0.12 | 1497.9 ± 1.3 | 0.8955 ± 0.021
298.15 K, m1 = 0.006 | 997.635 ± 0.12 | 1498.4 ± 1.3 | 0.8987 ± 0.021
298.15 K, m1 = 0.008 | 997.835 ± 0.12 | 1499.1 ± 1.3 | 0.902 ± 0.021
298.15 K, m1 = 0.01 | 998.035 ± 0.12 | 1499.7 ± 1.3 | 0.9055 ± 0.021
298.15 K, m1 = 0.014 | 998.454 ± 0.13 | 1500.8 ± 1.3 | 0.9168 ± 0.021
298.15 K, m1 = 0.018 | 998.905 ± 0.13 | 1501.7 ± 1.3 | 0.9239 ± 0.021
298.15 K, m1 = 0.022 | 999.354 ± 0.13 | 1502.6 ± 1.3 | 0.9315 ± 0.021
298.15 K, m1 = 0.026 | 999.746 ± 0.13 | 1503.4 ± 1.3 | 0.9373 ± 0.021
298.15 K, m1 = 0.03 | 1000.14 ± 0.12 | 1504 ± 1.3 | 0.9429 ± 0.021
303.15 K, m1 = 0.001 | 995.785 ± 0.13 | 1509.5 ± 1.3 | 0.798 ± 0.021
303.15 K, m1 = 0.002 | 995.901 ± 0.13 | 1509.8 ± 1.3 | 0.7991 ± 0.021
303.15 K, m1 = 0.003 | 996.001 ± 0.13 | 1510 ± 1.3 | 0.7999 ± 0.021
303.15 K, m1 = 0.004 | 996.102 ± 0.13 | 1510.2 ± 1.3 | 0.8022 ± 0.021
303.15 K, m1 = 0.006 | 996.301 ± 0.13 | 1510.7 ± 1.3 | 0.8047 ± 0.021
303.15 K, m1 = 0.008 | 996.513 ± 0.13 | 1511.3 ± 1.3 | 0.8075 ± 0.021
303.15 K, m1 = 0.01 | 996.724 ± 0.13 | 1511.8 ± 1.3 | 0.8105 ± 0.021
303.15 K, m1 = 0.014 | 997.167 ± 0.13 | 1512.8 ± 1.3 | 0.8215 ± 0.021
303.15 K, m1 = 0.018 | 997.524 ± 0.13 | 1513.8 ± 1.3 | 0.8281 ± 0.021
303.15 K, m1 = 0.022 | 997.945 ± 0.13 | 1514.6 ± 1.3 | 0.8321 ± 0.021
303.15 K, m1 = 0.026 | 998.31 ± 0.13 | 1515.4 ± 1.3 | 0.838 ± 0.021
303.15 K, m1 = 0.03 | 998.815 ± 0.13 | 1516.1 ± 1.3 | 0.8429 ± 0.021
308.15 K, m1 = 0.001 | 994.145 ± 0.14 | 1520.2 ± 1.3 | 0.7202 ± 0.021
308.15 K, m1 = 0.002 | 994.255 ± 0.13 | 1520.5 ± 1.3 | 0.7212 ± 0.021
308.15 K, m1 = 0.003 | 994.348 ± 0.13 | 1520.7 ± 1.3 | 0.7225 ± 0.021
308.15 K, m1 = 0.004 | 994.455 ± 0.14 | 1520.9 ± 1.3 | 0.7241 ± 0.021
308.15 K, m1 = 0.006 | 994.7 ± 0.13 | 1521.4 ± 1.3 | 0.7265 ± 0.021
308.15 K, m1 = 0.008 | 994.885 ± 0.13 | 1522 ± 1.3 | 0.7295 ± 0.021
308.15 K, m1 = 0.01 | 995.101 ± 0.13 | 1522.4 ± 1.3 | 0.7323 ± 0.021
308.15 K, m1 = 0.014 | 995.521 ± 0.13 | 1523.4 ± 1.3 | 0.7415 ± 0.021
308.15 K, m1 = 0.018 | 995.957 ± 0.13 | 1524.2 ± 1.3 | 0.7461 ± 0.021
308.15 K, m1 = 0.022 | 996.357 ± 0.13 | 1525 ± 1.3 | 0.7509 ± 0.021
308.15 K, m1 = 0.026 | 996.744 ± 0.13 | 1525.8 ± 1.3 | 0.7561 ± 0.021
308.15 K, m1 = 0.03 | 997.176 ± 0.13 | 1526.4 ± 1.3 | 0.7619 ± 0.021
313.15 K, m1 = 0.001 | 992.351 ± 0.14 | 1529.3 ± 1.3 | 0.6535 ± 0.021
313.15 K, m1 = 0.002 | 992.449 ± 0.14 | 1529.6 ± 1.3 | 0.6544 ± 0.021
313.15 K, m1 = 0.003 | 992.547 ± 0.14 | 1529.8 ± 1.3 | 0.6556 ± 0.021
313.15 K, m1 = 0.004 | 992.655 ± 0.14 | 1530 ± 1.3 | 0.6571 ± 0.021
313.15 K, m1 = 0.006 | 992.873 ± 0.14 | 1530.4 ± 1.3 | 0.6595 ± 0.021
313.15 K, m1 = 0.008 | 993.087 ± 0.14 | 1530.9 ± 1.3 | 0.662 ± 0.021
313.15 K, m1 = 0.01 | 993.304 ± 0.14 | 1531.3 ± 1.3 | 0.6648 ± 0.021
313.15 K, m1 = 0.014 | 993.711 ± 0.14 | 1532.3 ± 1.3 | 0.6722 ± 0.021
313.15 K, m1 = 0.018 | 994.126 ± 0.14 | 1533.1 ± 1.3 | 0.6772 ± 0.021
313.15 K, m1 = 0.022 | 994.505 ± 0.14 | 1533.9 ± 1.3 | 0.6813 ± 0.021
313.15 K, m1 = 0.026 | 994.935 ± 0.14 | 1534.6 ± 1.3 | 0.6865 ± 0.021
313.15 K, m1 = 0.03 | 995.354 ± 0.14 | 1535.2 ± 1.3 | 0.6918 ± 0.021
318.15 K, m1 = 0.001 | 990.351 ± 0.14 | 1536.9 ± 1.3 | 0.5973 ± 0.021
318.15 K, m1 = 0.002 | 990.445 ± 0.14 | 1537.2 ± 1.3 | 0.5985 ± 0.021
318.15 K, m1 = 0.003 | 990.539 ± 0.14 | 1537.3 ± 1.3 | 0.5997 ± 0.021
318.15 K, m1 = 0.004 | 990.629 ± 0.14 | 1537.5 ± 1.3 | 0.6013 ± 0.021
318.15 K, m1 = 0.006 | 990.864 ± 0.14 | 1537.9 ± 1.3 | 0.6035 ± 0.021
318.15 K, m1 = 0.008 | 991.051 ± 0.14 | 1538.3 ± 1.3 | 0.6062 ± 0.021
318.15 K, m1 = 0.01 | 991.257 ± 0.14 | 1538.7 ± 1.3 | 0.609 ± 0.021
318.15 K, m1 = 0.014 | 991.671 ± 0.23 | 1539.5 ± 1.3 | 0.6161 ± 0.021
318.15 K, m1 = 0.018 | 992.088 ± 0.15 | 1540.4 ± 1.3 | 0.6201 ± 0.021
318.15 K, m1 = 0.022 | 992.491 ± 0.14 | 1541.2 ± 1.3 | 0.6245 ± 0.021
318.15 K, m1 = 0.026 | 992.905 ± 0.14 | 1541.9 ± 1.3 | 0.6291 ± 0.021
318.15 K, m1 = 0.03 | 993.313 ± 0.14 | 1542.5 ± 1.3 | 0.6328 ± 0.021
